Data from PMC7036909, “Discovery of Selective SIRT2 Inhibitors as Therapeutic Agents in B-Cell Lymphoma and Other Malignancies” (Molecules, 2020).

Experiments:
SIRT1 = target: T1, SIRT1 (Homo sapiens, UniProt Q96EB6); experiment: SIRT-Glo enzyme inhibition assay, SIRT1; conditions: for inhibition at 50 µM: read-out: SIRT1 percentage inhibition at 50 µM compound, 50 µM compound
T1 sequence (Q96EB6 1-747): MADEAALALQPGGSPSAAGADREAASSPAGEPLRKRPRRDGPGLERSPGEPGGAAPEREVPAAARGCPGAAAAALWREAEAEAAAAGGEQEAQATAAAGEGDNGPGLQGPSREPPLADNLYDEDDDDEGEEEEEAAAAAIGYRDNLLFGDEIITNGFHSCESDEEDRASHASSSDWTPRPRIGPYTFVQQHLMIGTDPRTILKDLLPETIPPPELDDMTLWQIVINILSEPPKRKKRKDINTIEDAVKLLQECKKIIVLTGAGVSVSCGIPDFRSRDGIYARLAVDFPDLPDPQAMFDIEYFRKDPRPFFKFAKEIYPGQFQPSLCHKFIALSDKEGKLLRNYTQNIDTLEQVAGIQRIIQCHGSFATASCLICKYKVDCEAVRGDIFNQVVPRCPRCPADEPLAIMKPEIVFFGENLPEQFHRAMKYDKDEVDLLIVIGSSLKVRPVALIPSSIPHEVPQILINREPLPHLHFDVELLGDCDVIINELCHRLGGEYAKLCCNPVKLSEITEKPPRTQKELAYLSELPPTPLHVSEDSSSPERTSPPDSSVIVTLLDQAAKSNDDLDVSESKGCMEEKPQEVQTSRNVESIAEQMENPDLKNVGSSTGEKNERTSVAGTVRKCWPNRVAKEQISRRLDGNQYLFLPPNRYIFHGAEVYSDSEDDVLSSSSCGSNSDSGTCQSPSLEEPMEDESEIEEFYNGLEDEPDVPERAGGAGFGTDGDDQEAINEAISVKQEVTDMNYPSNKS
Method: (§1) SIRT1, SIRT2, and SIRT3 were purchased from Cayman Chemical. Enzyme inhibition assays were performed in 96-well black plates using the SIRT-Glo Assay (Promega Corp.) according to the manufacturer’s instructions. Compounds were dissolved in 100% DMSO and to make 5- or 10-mM stock solutions. For initial enzyme inhibition tests, 50 µM of inhibitory concentration was used. […] IC50 values were determined in triplicate and reported values are averages of two independent experiments.

SIRT2 = target: T2, SIRT2 (Homo sapiens, UniProt Q8IXJ6); experiment: SIRT-Glo enzyme inhibition assay, SIRT2; conditions: for IC50: SIRT2 IC50; for inhibition at 50 µM: read-out: SIRT2 percentage inhibition at 50 µM compound, 50 µM compound
T2 sequence (Q8IXJ6 1-389): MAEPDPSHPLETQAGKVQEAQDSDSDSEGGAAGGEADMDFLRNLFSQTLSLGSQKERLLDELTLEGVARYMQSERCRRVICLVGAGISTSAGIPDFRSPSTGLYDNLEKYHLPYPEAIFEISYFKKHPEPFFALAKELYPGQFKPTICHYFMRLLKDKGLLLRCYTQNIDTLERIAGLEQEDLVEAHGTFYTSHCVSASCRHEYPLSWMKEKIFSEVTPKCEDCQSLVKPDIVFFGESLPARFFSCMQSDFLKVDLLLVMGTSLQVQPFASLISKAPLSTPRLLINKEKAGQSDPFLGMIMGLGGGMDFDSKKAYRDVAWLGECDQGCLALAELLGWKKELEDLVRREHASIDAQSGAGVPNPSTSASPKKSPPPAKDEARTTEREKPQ
Method: as §1

SIRT3 = target: T3, SIRT3 (Homo sapiens, UniProt Q9NTG7); experiment: SIRT-Glo enzyme inhibition assay, SIRT3; conditions: for inhibition at 50 µM: read-out: SIRT3 percentage inhibition at 50 µM compound, 50 µM compound
T3 sequence (Q9NTG7 1-399): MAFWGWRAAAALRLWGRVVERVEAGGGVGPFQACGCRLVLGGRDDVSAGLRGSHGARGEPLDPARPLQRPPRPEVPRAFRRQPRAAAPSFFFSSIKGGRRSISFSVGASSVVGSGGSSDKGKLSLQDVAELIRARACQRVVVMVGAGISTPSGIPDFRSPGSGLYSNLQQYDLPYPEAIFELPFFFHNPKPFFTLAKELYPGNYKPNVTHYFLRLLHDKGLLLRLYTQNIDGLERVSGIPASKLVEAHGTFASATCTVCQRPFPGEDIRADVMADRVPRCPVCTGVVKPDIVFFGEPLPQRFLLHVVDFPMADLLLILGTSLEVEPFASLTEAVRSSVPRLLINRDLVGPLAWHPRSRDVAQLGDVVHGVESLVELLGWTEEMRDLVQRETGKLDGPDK
Method: as §1

| Molecule | inhibition at 50 µM (SIRT1) [%] | IC50 (SIRT2) [µM] | inhibition at 50 µM (SIRT2) [%] | other results |
| --- | --- | --- | --- | --- |
| 2-[(6-Bromo-2-hydroxynaphthalen-1-yl)methyl]-1-[4-(trifluoromethyl)phenyl]hex-5-yne-1,3-dione [Compound 46] |  |  |  | SIRT1 percentage inhibition at 50 µM compound (SIRT1): 28%; SIRT2 percentage inhibition at 50 µM compound (SIRT2): 88% |
| 2-[(6-Bromo-2-hydroxynaphthalen-1-yl)methyl]-3-(3-bromophenyl)-N-(furan-3-ylmethyl)-3-oxopropanamide [Compound 39] |  |  |  | SIRT1 percentage inhibition at 50 µM compound (SIRT1): 13%; SIRT2 percentage inhibition at 50 µM compound (SIRT2): 30% |
| 2-[(6-Bromo-2-hydroxynaphthalen-1-yl)methyl]-3-(4-acetamidophenyl)-3-oxopropanamide [Compound 28] |  |  |  | SIRT1 percentage inhibition at 50 µM compound (SIRT1): 0.0%; SIRT2 percentage inhibition at 50 µM compound (SIRT2): 58% |
| Cc1ccc(C(=O)C(Cc2c(O)ccc3cc(Br)ccc23)C(N)=O)cc1 (stereo not shown) [Compound 4, 2-[(6-Bromo-2-hydroxynaphthalen-1-yl)methyl]-3-(4-methylphenyl)-3-oxopropanamide] | 9 | 13 | 89 | IC50 (SIRT1): > 200 µM |
| Cc1cccc(C(=O)C(Cc2c(O)ccc3cc(Br)ccc23)C(N)=O)c1 (stereo not shown) [Compound 16, 2-[(6-Bromo-2-hydroxynaphthalen-1-yl)methyl]-3-(3-methylphenyl)-3-oxopropanamide] | 38 |  | 70 |  |
| Cc1ccccc1C(=O)C(Cc1c(O)ccc2cc(Br)ccc12)C(N)=O (stereo not shown) [Compound 17, 2-[(6-Bromo-2-hydroxynaphthalen-1-yl)methyl]-3-(2-methylphenyl)-3-oxopropanamide] | 0 |  | 3 |  |
| NC(=O)C(Cc1c(O)ccc2cc(Br)ccc12)C(=O)c1ccccc1 (stereo not shown) [Compound 18, 2-[(6-Bromo-2-hydroxynaphthalen-1-yl)methyl]-3-oxo-3-phenylpropanamide] | 0 |  | 57 |  |
| NC(=O)C(Cc1c(O)ccc2cc(Br)ccc12)C(=O)c1ccc(C(F)(F)F)cc1 (stereo not shown) [Compound 20, 2-[(6-Bromo-2-hydroxynaphthalen-1-yl)methyl]-3-(4-trifluoromethylphenyl)-3-oxopropanamide] | 0 | 1.9 | 100 | inhibition at 50 µM (SIRT3): 5% |
| NC(=O)C(Cc1c(O)ccc2cc(Br)ccc12)C(=O)c1cccc(C(F)(F)F)c1 (stereo not shown) [Compound 21, 2-[(6-Bromo-2-hydroxynaphthalen-1-yl)methyl]-3-(3-trifluoromethylphenyl)-3-oxopropanamide] | 0 | 12.6 | 89 | inhibition at 50 µM (SIRT3): 15% |
| NC(=O)C(Cc1c(O)ccc2cc(Br)ccc12)C(=O)c1cccc(Br)c1 (stereo not shown) [Compound 23, 2-[(6-Bromo-2-hydroxynaphthalen-1-yl)methyl]-3-(3-bromo)-3-oxopropanamide] | 53 | 8.95 | 91 | inhibition at 50 µM (SIRT3): 41% |
| COc1ccc(C(=O)C(Cc2c(O)ccc3cc(Br)ccc23)C(N)=O)cc1 (stereo not shown) [Compound 24, 2-[(6-Bromo-2-hydroxynaphthalen-1-yl)methyl]-3-(4-methoxy)-3-oxopropanamide] | 34 |  | 72 |  |
| NC(=O)C(Cc1c(O)ccc2cc(Br)ccc12)C(=O)c1ccc(F)cc1 (stereo not shown) [Compound 25, 2-[(6-Bromo-2-hydroxynaphthalen-1-yl)methyl]-3-(4-fluoro)-3-oxopropanamide] | 35 | 12.4 | 96 | inhibition at 50 µM (SIRT3): 39% |
| NC(=O)C(Cc1c(O)ccc2ccccc12)C(=O)c1cccc(Br)c1 (stereo not shown) [Compound 29, 3-(3-Bromophenyl)-2-[(2-hydroxynaphthalen-1-yl)methyl]-3-oxopropanamide] | 12 |  | 14 |  |
| COc1ccc2c(CC(C(N)=O)C(=O)c3cccc(Br)c3)c(O)ccc2c1 (stereo not shown) [Compound 30, 3-(3-Bromophenyl)-2-[(2-hydroxy-6-methoxynaphthalen-1-yl)methyl]-3-oxopropanamide] | 0 |  | 32 |  |
| NC(=O)C(Cc1c(O)c(Br)cc2ccccc12)C(=O)c1cccc(Br)c1 (stereo not shown) [Compound 31, 2-[(3-Bromo-2-hydroxynaphthalen-1-yl)methyl]-3-(3-bromophenyl)-3-oxopropanamide] | 0 |  | 37 |  |
| NC(=O)C(Cc1c(O)ccc2ccc(Br)cc12)C(=O)c1cccc(Br)c1 (stereo not shown) [Compound 32, 2-[(7-Bromo-2-hydroxynaphthalen-1-yl)methyl]-3-(3-bromophenyl)-3-oxopropanamide] | 0 |  | 16 |  |
| O=C(NCCO)C(Cc1c(O)ccc2cc(Br)ccc12)C(=O)c1cccc(Br)c1 (stereo not shown) [Compound 36, 2-[(6-Bromo-2-hydroxynaphthalen-1-yl)methyl]-3-(3-bromophenyl)-N-(2-hydroxyethyl)-3-oxopropanamide] | 0 | 4.75 | 94 | inhibition at 50 µM (SIRT3): 43% |
| O=C(NCCCO)C(Cc1c(O)ccc2cc(Br)ccc12)C(=O)c1cccc(Br)c1 (stereo not shown) [Compound 37, 2-[(6-Bromo-2-hydroxynaphthalen-1-yl)methyl]-3-(3-bromophenyl)-N-(3-hydroxypropyl)-3-oxopropanamide] | 28 | 7.62 | 86 | inhibition at 50 µM (SIRT3): 46% |
| O=C(c1cccc(Br)c1)C(Cc1c(O)ccc2cc(Br)ccc12)C(=O)N1CCOCC1 (stereo not shown) [Compound 38, 2-[(6-Bromo-2-hydroxynaphthalen-1-yl)methyl]-1-(3-bromophenyl)-3-(morpholin-4-yl)propane-1,3-dione] | 1 |  | 22 |  |
| COCCNC(=O)C(Cc1c(O)ccc2cc(Br)ccc12)C(=O)c1cccc(Br)c1 (stereo not shown) [Compound 41, 2-[(6-Bromo-2-hydroxynaphthalen-1-yl)methyl]-3-(3-bromophenyl)-N-(2-methoxyethyl)-3-oxopropanamide] | 0 |  | 53 |  |
| O=C(NCc1cccnc1)C(Cc1c(O)ccc2cc(Br)ccc12)C(=O)c1cccc(Br)c1 (stereo not shown) [Compound 42] | 3 |  | 6 |  |
| CNC(=O)CCNC(=O)C(Cc1c(O)ccc2cc(Br)ccc12)C(=O)c1cccc(Br)c1 (stereo not shown) [Compound 44, 2-[(6-Bromo-2-hydroxynaphthalen-1-yl)methyl]-3-(3-bromophenyl)-N-[2-(methylcarbamoyl)ethyl]-3-oxo-propanamide] | 0 | 6.5 | 98 |  |
| CN1CCN(C(=O)C(Cc2c(O)ccc3cc(Br)ccc23)C(=O)c2ccc(C(F)(F)F)cc2)CC1 (stereo not shown) [Compound 45, 2-[(6-Bromo-2-hydroxynaphthalen-1-yl)methyl]-1-(4-methylpiperazin-1-yl)-3-[4-(trifluoromethyl)phenyl]-propane-1,3-dione] | 10 |  | 88 |  |
| NC(=O)CCNC(=O)C(Cc1c(O)ccc2cc(Br)ccc12)C(=O)c1cccc(C(F)(F)F)c1 (stereo not shown) [Compound 53] | 8 | 1.57 | 91 | selectivity for SIRT2 over SIRT1 (SIRT1; SIRT2 versus SIRT1): > 400 fold; selectivity for SIRT2 over SIRT3 (SIRT3; SIRT2 versus SIRT3): > 800 fold; inhibition at 50 µM (SIRT3): 16% |
